We go through 50 molecules from patent US6261814A, “Carboxylic acid reductase, and methods of using same” (University of Iowa Research Foundation, priority 1998, dated 2001).

T1 sequence (Q6RKB1 whole entry): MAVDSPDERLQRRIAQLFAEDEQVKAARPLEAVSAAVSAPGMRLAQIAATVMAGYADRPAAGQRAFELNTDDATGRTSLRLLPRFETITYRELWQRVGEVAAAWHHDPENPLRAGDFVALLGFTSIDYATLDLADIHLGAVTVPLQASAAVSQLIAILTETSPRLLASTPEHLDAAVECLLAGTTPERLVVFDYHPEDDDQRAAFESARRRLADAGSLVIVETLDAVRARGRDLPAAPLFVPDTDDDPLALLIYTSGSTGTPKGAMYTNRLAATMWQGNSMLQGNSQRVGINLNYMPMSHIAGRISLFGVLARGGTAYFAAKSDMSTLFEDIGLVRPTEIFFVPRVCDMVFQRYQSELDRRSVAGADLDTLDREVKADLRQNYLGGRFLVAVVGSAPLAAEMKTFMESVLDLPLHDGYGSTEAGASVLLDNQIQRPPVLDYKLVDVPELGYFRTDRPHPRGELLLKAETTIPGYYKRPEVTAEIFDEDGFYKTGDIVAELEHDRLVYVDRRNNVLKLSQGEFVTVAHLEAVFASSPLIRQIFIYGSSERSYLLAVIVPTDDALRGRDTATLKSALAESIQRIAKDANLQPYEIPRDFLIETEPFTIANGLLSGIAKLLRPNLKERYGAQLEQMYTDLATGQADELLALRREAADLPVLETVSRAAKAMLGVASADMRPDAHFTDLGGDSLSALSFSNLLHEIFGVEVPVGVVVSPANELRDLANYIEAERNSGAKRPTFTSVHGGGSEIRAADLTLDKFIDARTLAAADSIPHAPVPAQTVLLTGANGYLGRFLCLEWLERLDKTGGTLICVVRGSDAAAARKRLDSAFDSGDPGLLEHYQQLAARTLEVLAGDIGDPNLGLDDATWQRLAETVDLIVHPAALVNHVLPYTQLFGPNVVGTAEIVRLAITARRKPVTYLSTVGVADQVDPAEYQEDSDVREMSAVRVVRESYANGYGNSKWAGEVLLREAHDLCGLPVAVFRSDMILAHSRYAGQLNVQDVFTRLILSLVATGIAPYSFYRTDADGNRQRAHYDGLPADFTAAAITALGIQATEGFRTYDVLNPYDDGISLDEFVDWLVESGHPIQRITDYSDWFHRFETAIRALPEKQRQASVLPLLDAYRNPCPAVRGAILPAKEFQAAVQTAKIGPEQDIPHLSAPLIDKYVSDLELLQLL

One test addresses T1, carboxylic acid reductase (aryl aldehyde oxidoreductase) (Nocardia iowensis, UniProt Q6RKB1). Nature of the test: Kinetic properties of the purified carboxylic acid reductase (standard enzyme assay).
Conditions: not given
As for the experimental part: (§1) Enzyme assay. The standard aryl-aldehyde oxidoreductase assay solution contained 0.15 mM […], 1 mM ATP, and 5 mM sodium benzoate, 10 mM MgCl2 and 0.01 to 0.3 units of enzyme in 50 mM Tris-HCl buffer in a final volume of 0.7 ml. The reference cuvette contained all components except for benzoate. Enzyme reactions were initiated by adding enzyme, and they were monitored by recording the absorption decrease at 340 nm at 25° C. with a Shimadzu 160 spectrophotometer.
Kinetic constants were obtained by fitting experimental data with the EZ-FIT program developed by Perrella (Perrella, Anal. Biochem. 174:437-447 (1987)).
S(+)-α-Methyl-4-[2-methylpropyl]-benzeneacetic acid (ibuprofen) was from Aldrich Chemical Co. R(-) isomer of ibuprofen was a gift from Dr. Ching-Shih Chen, University of Rhode Island (Chen et al., Biochim. Biophys. Acta 1033:1-6 (1990)). […] Substrate enantiopurities were checked by specific rotation determination for each isomer (Chen and Rosazza, Appl. Environ. Microbiol. 60(4):1292-1296 (1994)).
The Ki is a dissociation constant, usually derived from enzyme kinetics or from competition with a known ligand. Higher therefore signals weaker binding. On to `Nc1ccccc1C(=O)O` [anthranilic acid, 2-amino benzoic acid], for which the affinity corresponds to a Ki of 261 ± 30 µM.

Staying with this test, now noted: 5 mM in the enzyme assay solution.
Regarding `Nc1ccccc1C(=O)O` [anthranilic acid, 2-amino benzoic acid], the “NADPH oxidation with the compound in place of benzoic acid” value is given as “no NADPH oxidation was observed”.

The test is the same for the next values; noted with them: calculated assuming pure enzyme and one active site per molecule.
For `CC(C)Cc1ccc([C@H](C)C(=O)O)cc1` [S(+)-ibuprofen, S(+)-α-Methyl-4-[2-methylpropyl]-benzeneacetic acid], the turn-over number was 186 min⁻¹.

In the case of `CC(C)Cc1ccc([C@@H](C)C(=O)O)cc1` [R(-)-ibuprofen], the turn-over number was 21 min⁻¹.

The test is the same for the next values; noted with them: higher than values reported by Kato et al.
Regarding `Nc1ncnc2c1ncn2[C@@H]1O[C@H](COP(=O)(O)OP(=O)(O)OP(=O)(O)O)[C@@H](O)[C@H]1O` [ATP], the “apparent Km relative to Km reported for the enzyme from Nocardia asteroides” value is recorded as “more than 1000 fold”.

The test is the same for the next values; noted with them: purified enzyme.
`O=Cc1ccccc1` [benzaldehyde]: the “reduction of benzaldehyde to benzyl alcohol” value was “did not reduce”.

Staying with this test, now noted: purified enzyme; mean of three determinations; listed as R(-) isomer.
For the molecule `CC(C)Cc1ccc([C@@H](C)C(=O)O)cc1` [R(-)-ibuprofen], the Vmax is 1.33+0.02 μmol/min/mg of protein.

The test is the same for the next values; noted with them: purified enzyme; mean of three determinations; listed as R-(-).
Take `CC(C)Cc1ccc([C@@H](C)C(=O)O)cc1` [R(-)-ibuprofen]: the Vmax is 0.15 μmol/min/mg of protein.

Staying with this test, now noted: purified enzyme; mean of three determinations; listed as S(+) isomer.
Take `CC(C)Cc1ccc([C@H](C)C(=O)O)cc1` [S(+)-ibuprofen, S(+)-α-Methyl-4-[2-methylpropyl]-benzeneacetic acid]: the Vmax was 0.148±0.003 μmol/min/mg of protein.

The same test, now with this note: purified enzyme; mean of three determinations; listed as S-(+).
On to `CC(C)Cc1ccc([C@H](C)C(=O)O)cc1` [S(+)-ibuprofen, S(+)-α-Methyl-4-[2-methylpropyl]-benzeneacetic acid], for which the Vmax is 1.33 μmol/min/mg of protein.

Still in this test, the particulars now being: versus benzoic acid; listed as 2-amino benzoic acid.
Turning to `Nc1ccccc1C(=O)O` [anthranilic acid, 2-amino benzoic acid], the type of inhibition entry was “typical competitive inhibitor”.

Staying with this test, now noted: versus benzoic acid; listed as Anthranilic acid.
In the case of `Nc1ccccc1C(=O)O` [anthranilic acid, 2-amino benzoic acid], the type of inhibition entry was “competitive inhibitor”.

A further test addresses T1, carboxylic acid reductase (aryl aldehyde oxidoreductase). Nature of the test: Substrate specificity of crude carboxylic acid reductase (100,000×g supernatant). The format is biochemical, Nocardia sp. NRRL 5646. Details: Crude enzyme preparations consisting of 100,000×g supernatants were used in this study; endogenous in cells; host or cells: Nocardia sp; NRRL 5646, crude 100,000×g supernatant. The following applies: 5 mM substrate, 0.15 mM NADPH, 1 mM ATP, 50 mM Tris-HCl pH 7.5; percentage of the initial rate of benzoate reduction. The protocol: as §1
Crude enzyme preparations consisting of 100,000×g supernatants were used in this study. […] The relative rate of reduction for each carboxylic acid derivative is expressed as the percentage of the initial rate of benzoate reduction.
The range of oxidoreductase activities of crude, 100,000×g Nocardia extract with a variety of substrates was investigated. Various substituted 2-, 3- and 4-substituted benzoates were examined, including a range of ring-activating and ring-deactivating functional groups. Benzoates substituted with halogens, methyl, methoxy, hydroxy, acetyl, nitro, benzoyl, phenyl, and phenoxyl groups as well as aryl-ring systems containing two (naphthalene) and three (fluorene) rings, and heterocyclic aromatic acids including furoic, nicotinic and indole carboxylic acids were considered. In addition, one cinnamic acid derivative, phenyl-acetate, phenyl-malonate, phenyl-succinate and 2-phenylpropionic acid were studied.
As for `O=C(O)c1ccccc1[N+](=O)[O-]` [2-nitro-benzoic acid], the “Relative Activity” value is on record as 0 percentage. Consider `O=C(O)c1ccc(Br)cc1` [4-bromo-benzoic acid], for which the “Relative Activity” value was 72 percentage. The same measure, in the same setting: as for `O=C(O)C(C(=O)O)c1ccccc1` [phenyl malonic acid], the figure is 3 percentage; as for `O=C(O)c1ccccc1O` [2-hydroxyl-benzoic acid], 0 percentage; as for `O=C(O)c1ccc(O)cc1` [4-hydroxyl-benzoic acid], 6 percentage. On the same count and under the same terms, in the case of `O=C(O)c1cc2ccccc2[nH]1` [indole-2-carboxylic acid] it was 0 percentage; in that of `O=C(O)c1cccc2ccccc12` [1-naphthoic acid], 77 percentage; in that of `O=C(O)c1ccc(Oc2ccccc2)cc1` [4-phenoxy-benzoic acid], 11 percentage.

Turning to `O=C(O)c1cccc(C(=O)c2ccccc2)c1` [3-benzoyl-benzoic acid], the “Relative Activity” value is given as 53 percentage. On the same count and under the same terms, as for `O=C(O)c1cccc(Cl)c1` [3-chloro-benzoic acid], the figure is 124 percentage; as for `O=C(O)c1cccc(Br)c1` [3-bromo-benzoic acid], 105 percentage. Still for that read-out and setting: in the case of `CC(=O)Nc1ccc(C(=O)O)cc1` [4-acetylamino-benzoic acid] it was 22 percentage; in that of `O=C(O)c1cccc2c1Cc1ccccc1-2` [fluorene-1-carboxylic acid], 17 percentage. Same read-out and setting: as for `CC(C(=O)O)c1ccccc1` (centres unmarked) [2-phenyl propionic acid], the figure is 16 percentage; as for `O=C(O)c1ccc2[nH]ccc2c1` [indole-5-carboxylic acid], 10 percentage; as for `O=C(O)c1cccc(F)c1` [3-fluoro-benzoic acid], 78 percentage.

With `O=C(O)c1ccccc1Br` [2-bromo-benzoic acid], the “Relative Activity” value is 5 percentage. `Cc1ccccc1C(=O)O` [2-toluic acid]: the “Relative Activity” value was determined as 6 percentage. Same read-out and setting: in the case of `O=C(O)c1ccc(-c2ccccc2)cc1` [4-phenyl-benzoic acid] it was 21 percentage. Same read-out and setting: as for `COc1ccccc1C(=O)O` [2-anisic acid], the figure is 3 percentage; as for `Cc1ccc(C(=O)O)cc1` [4-toluic acid], 82 percentage. Still for that read-out and setting: as for `O=C(O)c1ccccc1-c1ccccc1` [2-phenyl-benzoic acid], the figure is 16 percentage; as for `O=C(O)c1cccc2[nH]ccc12` [indole-4-carboxylic acid], 0 percentage; as for `O=C(O)CC(C(=O)O)c1ccccc1` (centres unmarked) [phenyl succinic acid], 11 percentage. Turning to `CC(=O)Nc1ccccc1C(=O)O` [2-acetylamino-benzoic acid], the “Relative Activity” value was determined as 0 percentage. Still for that read-out and setting: as for `O=C(O)c1ccccc1Cl` [2-chloro-benzoic acid], the figure is 3 percentage; as for `O=C(O)c1ccccc1F` [2-fluoro-benzoic acid], 57 percentage. On to `O=C(O)c1c[nH]c2ccccc12` [indole-3-carboxylic acid], for which the “Relative Activity” value was found to be 2 percentage. On to `O=C(O)c1ccco1` [2-furoic acid], for which the “Relative Activity” value is reported as 18 percentage. Regarding `CC(=O)c1ccc(C(=O)O)cc1` [4-acetyl-benzoic acid], the “Relative Activity” value was determined as 20 percentage. With `O=C(O)Cc1ccccc1` [phenyl acetic acid], the “Relative Activity” value came out at 43 percentage. Consider `Cc1cccc(C(=O)O)c1` [3-toluic acid], for which the “Relative Activity” value is listed as 4 percentage. The same measure, in the same setting: in the case of `CC(=O)c1ccccc1C(=O)O` [2-acetyl-benzoic acid] it was 4 percentage.

Regarding `O=C(O)c1ccc(C(=O)c2ccccc2)cc1` [4-benzoyl-benzoic acid], the “Relative Activity” value is listed as 6 percentage. Still for that read-out and setting: as for `COc1ccc(C(=O)O)cc1` [4-anisic acid], the figure is 36 percentage; as for `O=C(O)c1cccc([N+](=O)[O-])c1` [3-nitro-benzoic acid], 0 percentage. Still for that read-out and setting: as for `O=C(O)c1cccnc1` [nicotinic acid], the figure is 5 percentage. On to `O=C(O)c1ccc2ccccc2c1` [2-naphthoic acid], for which the “Relative Activity” value came to 95 percentage. Take `COc1cccc(C=CC(=O)O)c1` [3-methoxy-cinnamic acid]: the “Relative Activity” value is listed as 8 percentage. As to `O=C(O)c1ccc([N+](=O)[O-])cc1` [4-nitro-benzoic acid], the “Relative Activity” value is recorded as 0 percentage. Regarding `O=C(O)c1ccccc1C(=O)c1ccccc1` [2-benzoyl-benzoic acid], the “Relative Activity” value came to 0 percentage. Still for that read-out and setting: as for `O=C(O)c1ccc(F)cc1` [4-fluoro-benzoic acid], the figure is 94 percentage. For `COc1cccc(C(=O)O)c1` [3-anisic acid], the “Relative Activity” value amounted to 87 percentage. Regarding `O=C(O)c1cccc(O)c1` [3-hydroxyl-benzoic acid], the “Relative Activity” value was 77 percentage.

Regarding `O=C(O)c1ccoc1` [3-furoic acid], the “Relative Activity” value is recorded as 22 percentage.

The test is the same for the next values; noted with them: substrates of Table 2.
For `O=C(O)C(C(=O)O)c1ccccc1` [phenyl malonic acid], the “quality as substrate of the enzyme (in words)” value (“quality as substrate” below) is reported as “slower rates than benzoate”. Turning to `O=C(O)c1cccc(Cl)c1` [3-chloro-benzoic acid], the “quality as substrate” value is on record as “best substrates”.

As for `O=C(O)c1cccc(Br)c1` [3-bromo-benzoic acid], the “quality as substrate” value was “best substrates”. Still for that read-out and setting: in the case of `CC(C(=O)O)c1ccccc1` (centres unmarked) [2-phenyl propionic acid] it was “slower rates than benzoate”; in that of `Cc1ccc(C(=O)O)cc1` [4-toluic acid], “best substrates”; in that of `O=C(O)CC(C(=O)O)c1ccccc1` (centres unmarked) [phenyl succinic acid], “slower rates than benzoate”. In the case of `O=C(O)Cc1ccccc1` [phenyl acetic acid], the “quality as substrate” value is “slower rates than benzoate”. The same measure, in the same setting: in the case of `O=C(O)c1cccnc1` [nicotinic acid] it was “slower rates than benzoate”; in that of `O=C(O)c1ccc2ccccc2c1` [2-naphthoic acid], “best substrates”; in that of `O=C(O)c1ccc(F)cc1` [4-fluoro-benzoic acid], “best substrates”. Regarding `COc1cccc(C(=O)O)c1` [3-anisic acid], the “quality as substrate” value is on record as “best substrates”.
